In PMC8235661, “Photoelectric Dye, NK-5962, as a Potential Drug for Preventing Retinal Neurons from Apoptosis: Pharmacokinetic Studies Based on Review of the Evidence” (Life, 2021):
Where two headings read alike, the source gives them in different places.

Legend:
[1] = In vivo pharmacokinetics, intravenous administration; design: species or system rat
Method: Male Sprague Dawley (SD) and Wistar rats (5-week old) were obtained from Charles River Laboratories Japan (Yokohama, Japan) and Japan SLC, Inc. (Hamamatsu, Japan), respectively. All animals were maintained in air-conditioned quarters with room temperatures of 20 ± 2 °C, relative humidity of 50 ± 10%, and an alternating 12 h light/dark cycle. The rats were fed a certified diet MF (Oriental Yeast Co., Tokyo, Japan) and water ad libitum. The studies were conducted in accordance with the guidelines provided by the Animal Care and Use Committee of Osaka University (Identifier DouyakuR01-3-1).
A test compound (NK-5962) solution in 50% DMSO/water was injected intravenously (i.v.) to male SD rats. A test compound suspension in 0.5% methyl cellulose was administered orally (p.o.) to male Wistar rats. The dosage of the test compound was 1 mg/2 mL/kg (i.v.) and 10 or 100 mg/10 mL/kg (p.o.). Blood samples were collected from the jugular vein at 5 and 15 min and 1 h (i.v.) by using pre-heparinized syringe after the intravenous administration or from the caudal vein at 15 and 30 min, 1, 2 and 4 h (p.o.) by using heparinized capillary tube after the oral administration. At 30 min and 2 h (i.v.) or 8 h (p.o.), blood samples were collected from the abdominal aorta under isoflurane anesthesia and the eye balls and the whole brain were excised immediately.
Plasma was prepared by centrifugation of the blood samples. Plasma and tissues were stored at −80 °C. The tissues were homogenized with a four-fold volume of phosphate-buffered saline to obtain a 20% tissue homogenate. Plasma and 20% tissue homogenates were precipitated with 4–20 volumes of acetonitrile/IS and centrifuged at 15,000× g at 4 °C for 10 min. The supernatants were analyzed by liquid chromatography and tandem mass spectrometry (LC-MS/MS). Standard non-compartmental analysis was performed to determine the pharmacokinetic parameters: elimination half-life (t1/2) and area under the concentration time curve from time zero to infinity (AUC∞). The absolute bioavailability (BA) of the oral dose was calculated as AUC∞ (p.o.)/AUC∞ (i.v.).
Liquid chromatography and tandem mass spectrometry instrument (LC-MS8060) equipped with Shimadzu Nexera series LC system (Shimadzu, Kyoto, Japan) were used. All compounds were analyzed in multi-reaction monitoring mode under electron spray ionization conditions. The analytical column used was a […] C18 MGIII (3 μm × 2.0 mmID × 35 mm; OSAKA SODA, Osaka, Japan) at 50 °C. The gradient mobile phase consisted of 0.1% formic acid in water (mobile phase A) and 0.1% formic acid in acetonitrile (mobile phase B) at a total flow rate of 1 mL/minute. The initial mobile phase composition was 10% B, which was held constant for 0.2 min, increased in a linear fashion to 90% B over 1 min, then held constant for 0.8 min, and then finally brought back to the initial condition of 10% B over 0.01 min and re-equilibrated for 1 min. The transitions (precursor ion > product ion) of NK-5962 and IS (methyl testosterone) are 433.2 > 279.2 and 303.1 > 109.1 (positive), respectively.

Skin sensitization test = conditions: in vivo
[2] = intravenous 1 mg/kg, 0.5 h, single rat, 1 mg/kg
[3] = intravenous 1 mg/kg, 2 h, single rat, 1 mg/kg

## CCCCN(CCCC)c1ccc(C=Cc2sc3ccccc3[n+]2CC(=O)O)cc1.[Br-] [NK-5962, 2-[2-[4-(dibutylamino)phenyl]ethenyl]-3-carboxymethylbenzothiazolium bromide]
[1]; intravenous 1 mg/kg, 0.083 h, single rat, 1 mg/kg
  Plasma Concentration: 648 nM
[1]; intravenous 1 mg/kg, 0.25 h, single rat, 1 mg/kg
  Plasma Concentration: 342 nM
[1]; [2]
  Eye Ball/ Plasma Ratio: 0.045
  Plasma Concentration: 569 nM
[1]; intravenous 1 mg/kg, 0.5 h, single rat, 1 mg/kg, read-out: Eye Ball Concentration
  concentration at 2 h: 25.5 nM
[1]; intravenous 1 mg/kg, 1 h, single rat, 1 mg/kg
  Plasma Concentration: 34.6 nM
[1]; [3]
  Eye Ball/ Plasma Ratio: 0.16
  Plasma Concentration: 22.0 nM
[1]; intravenous 1 mg/kg, 2 h, single rat, 1 mg/kg, read-out: Eye Ball Concentration
  concentration at 2 h: 3.42 nM
[1]; male, Sprague Dawley, rat, eye ball / plasma, iv, 1 mg/kg, intravenous 1 mg/kg, 0.5 h, single rat, read-out: Eye Ball/ Plasma Ratio
  Kp at 0.5 h: 0.052
[1]; male, Sprague Dawley, rat, eye ball / plasma, iv, 1 mg/kg, intravenous 1 mg/kg, 2 h, single rat, read-out: Eye Ball/ Plasma Ratio
  Kp at 2 h: 0.17
[1]; male, Sprague Dawley, rat, eye ball, iv, 1 mg/kg, intravenous 1 mg/kg, 0.5 h (30 min), read-out: Mean Eye Ball Concentration
  concentration at 0.5 h: 29.8 nM
[1]; male, Sprague Dawley, rat, eye ball, iv, 1 mg/kg, intravenous 1 mg/kg, 0.5 h, single rat, read-out: Eye Ball Concentration
  concentration at 0.5 h: 34.1 nM
[1]; male, Sprague Dawley, rat, eye ball, iv, 1 mg/kg, intravenous 1 mg/kg, 2 h, single rat, read-out: Eye Ball Concentration
  concentration at 2 h: 4.16 nM
[1]; male, Sprague Dawley, rat, eye ball, iv, 1 mg/kg, intravenous 1 mg/kg, 2 h, read-out: Mean Eye Ball Concentration
  concentration at 2 h: 3.79 nM
[1]; male, Sprague Dawley, rat, plasma, iv, 1 mg/kg, intravenous 1 mg/kg, 0.083 h, single rat
  concentration at 0.083 h: 779 nM
[1]; male, Sprague Dawley, rat, plasma, iv, 1 mg/kg, intravenous 1 mg/kg, 0.25 h, single rat
  concentration at 0.25 h: 511 nM
[1]; male, Sprague Dawley, rat, plasma, iv, 1 mg/kg, intravenous 1 mg/kg, 0.5 h, single rat, read-out: Plasma Concentration
  concentration at 0.5 h: 661 nM
[1]; male, Sprague Dawley, rat, plasma, iv, 1 mg/kg, intravenous 1 mg/kg, 1 h, single rat
  concentration at 1 h: 49.9 nM
[1]; male, Sprague Dawley, rat, plasma, iv, 1 mg/kg, intravenous 1 mg/kg, 2 h, single rat, read-out: Plasma Concentration
  concentration at 2 h: 24.3 nM
[1]; male, Sprague Dawley, rat, plasma, intravenous 1 mg/kg body weight, rats
  half-life: 21 min
Skin sensitization test
  toxicity in the skin sensitization test: not toxic
